According to US7470707B2, “Crystalline monohydrate clopidogrel naphthalenedisulfonate and process of preparation” (Hanmi Pharm. Co., Ltd, priority 2004, dated 2008):
Where a name gives a salt, the structure may show the parent alone.

What was measured:
[1] = 60° C. temperature and 75% relative humidity; resulting in gum type or liquefied form
Description: European Patent No. 281,459 B1 and U.S. Pat. No. 4,847,265 disclose a number of acid addition salts of clopidogrel prepared using various inorganic or organic acids.

[2] = orally administered to rat; cited from earlier work

Molecule | Hygroscopicity [1] | LD50 [2]
hydrochloride | highly hygroscopic | –
O=S(=O)(O)c1cccc2c(S(=O)(=O)O)cccc12 [1,5-naphthalenedisulfonic acid] | – | 2,420 mg/kg
Br [hydrobromide] | highly hygroscopic | –
